The results in this text go back to patent US11377441B2, “Covalent inhibitors of KRAS” (Araxes Pharma LLC, priority 2017, dated 2022).

This assay concerns the target T1, KRAS G12C 1-169, his-tagged protein, GDP-loaded (Homo sapiens, UniProt P01116, G12C).
T1 construct: KRAS G12C 1-169, his-tagged protein, GDP-loaded
As to the kind of experiment: Biochemical assay: covalent modification of KRAS G12C measured by mass spectrometry (RapidFire/TOF or Q-Exactive). Type of assay: binding. The note with it: covalent binding to (modification of) KRAS G12C after a ten minute incubation period. The method, then:
Test compounds were prepared as 10 mM stock solutions in DMSO (Fisher cat #BP-231-100). KRAS G12C 1-169, his-tagged protein, GDP-loaded is diluted to 2 μM or 0.5 μM in buffer (20 mM Hepes, 150 mM NaCl, 1 mM MgCl2). Compounds were tested for activity as follows:
Compounds were diluted to 50× final test concentration in DMSO in 96-well storage plates. Compound stock solutions were vortexed before use and observed carefully for any sign of precipitation. Dilutions are as follow: • For 100 μM final compound concentration, compounds were diluted to 5000 μM (5 μL 10 mM compound stock+5 μL DMSO and mixed well by pipetting. • For 30 μM final compound concentration, compounds were diluted to 1500 μM (3 μL 10 mM compound stock+17 μL DMSO) and mixed well by pipetting. • For 10 μM final compound concentration, compounds were diluted to 500 μM (2 μL 10 mM compound stock+38 μL DMSO) and mixed well by pipetting. 49 μL of the stock protein solution was added to each well of a 96-well PCR plate (Fisher cat #1423027). 1 μL of the diluted 50× compounds were added to appropriate wells in the PCR plate using 12-channel pipettor. Reactions were mixed carefully and thoroughly by pipetting up/down with a 200 μL multi-channel pipettor. The plate was sealed well with aluminum plate seal, and stored in drawer at room temperature for 10 minutes, 30 minutes, 2 hours or 24 hours. 5 μL of 2% formic acid (Fisher cat #A117) in de-ionized H2O was then added to each well followed by mixing with a pipette. The plate was then resealed with aluminum seal and stored on dry ice until analyzed as described below.
The above described assays were analyzed by mass spectrometry according to one of the following two procedures:
The MS instrument was set to positive polarity, 2 GHz resolution, and low mass (1700) mode and allowed to equilibrate for 30 minutes. The instrument was then calibrated, switched to acquisition mode and the appropriate method loaded.
After another 30 minute equilibration time, a blank batch (i.e., buffer) was run to ensure equipment is operating properly. The samples were thawed at 37° C. for 10 minutes, briefly centrifuged, and transfer to the bench top. Wells A1 and H12 were spiked with 1 μL 500 μM internal standard peptide, and the plates centrifuged at 2000×g for 5 minutes. The method was then run and masses of each individual well recorded.
The masses (for which integration data is desired) for each well were pasted into the platemap and exported from the analysis. Masses for the internal standards were exported as well. The data at 50 ppm was extracted for the +19 charge state, and identity of well A1 was assigned using the internal standard spike and integrated. Peak data was exported as a TOF list and the above steps were repeated individually, for the +20, 21, 22, 23, 24, and 25 charge states.
The masses and peak intensities of KRAS G12C protein species were measured using a Dionex RSLCnano system (Thermo Scientific) connected to a Q Exactive Plus mass spectrometer (Thermo Scientific).
[…] of sample was each loaded onto a Aeris™ 3.6 μm WIDEPORE C4 200 Å, LC Column 50×2.1 mm column maintained at 40° C. at a flow rate of 600 μL/min with 20% Solvent A (0.1% formic acid in H2O) and […] (0.1% formic acid in acetonitrile). The liquid chromatography conditions were 20% solvent B for 1 minute, 20% to 60% solvent B for 1.5 minutes, 60% to 90% solvent for 0.5 minute, 90% solvent B for 0.2 minute, 90% to 20% solvent B for 0.2 minute, and then equilibrated for 1.6 minutes before the following sample injection. The flow rate was maintained at 600 μL/min throughout the sample analysis.
The mass spectrometer was operated in profile mode at a resolution of 17500, 5 microscans, using 50 msec max injection time and an AGC target of 1×10^6, and a full mass range from 800-1850 m/z was recorded. The HCD trapping gas was optimized for maximum sensitivity for intact proteins. […]

For `C=CC(=O)N1C[C@H](C)N(c2nc(OCCN3CCOCC3)nc3c(F)c(-c4c(C)ccc5[nH]nc(C6CC6)c45)c(Cl)cc23)C[C@H]1C` (atropisomer, axis not shown) [Compound 113, 1-((2R,5S)-4-((R)-6-chloro-7-(3-cyclopropyl-5-methyl-1H-indazol-4-yl)-8-fluoro-2-(2-morpholinoethoxy)quina-zolin-4-yl)-2,5-dimethylpiperazin-1-yl)prop-2-en-1-one], the Binding % entry was “++ (++ indicates binding activity from 50 to 80%)”.

On to `C=CC(=O)N1C[C@H](C)N(c2nc(OCCN3CCC(F)(F)C3)nc3c(F)c(-c4c(C)ccc5[nH]nc(C6CC6)c45)c(Cl)cc23)C[C@H]1C` (atropisomer, axis not shown) [Compound 116, 1-((2R,5S)-4-((S)-6-chloro-7-(3-cyclopropyl-5-methyl-1H-indazol-4-yl)-2-(2-(3,3-difluoropyrrolidin-1-y)ethoxy)-8-fluoroquinazolin-4-yl)-2,5-dimethylpiperazin-1-yl)prop-2-en-1-one], for which the Binding % result is “+ (+ indicates binding activity greater than 0% and up to 50%)”.

In the case of `C=CC(=O)N1C[C@H](C)N(c2nc(OCCN3CCC(F)(F)C3)nc3c(F)c(-c4c(C)ccc5[nH]nc(C6CC6)c45)c(Cl)cc23)C[C@H]1C` (atropisomer, axis not shown) [Compound 117, 1-((2R,5S)-4-((R)-6-chloro-7-(3-cyclopropyl-5-methyl-1H-indazol-4-yl)-2-(2-(3,3-difluoropyrrolidin-1-yl)ethoxy)-8-fluoroquinazolin-4-yl)-2,5-dimethylpiperazin-1-yl)prop-2-en-1-one], the Binding % result is recorded as “+++ (+++ indicates binding activity greater than 80%)”.

For `C=CC(=O)N1C[C@H](C)N(c2nc(OCCN3CC(F)(F)C3)nc3c(F)c(-c4c(C)ccc5[nH]nc(C6CC6)c45)c(Cl)cc23)C[C@H]1C` (atropisomer, axis not shown) [Compound 121, 1-((2R,5S)-4-((S)-6-chloro-7-(3-cyclopropyl-5-methyl-1H-indazol-4-yl)-2-(2-(3,3-difluoroazetidin-1-yl)ethoxy)-8-fluoroquinazolin-4-yl)-2,5-dimethylpiperazin-1-yl)prop-2-en-1-one], the Binding % result was “+ (+ indicates binding activity greater than 0% and up to 50%)”.

Turning to `C=CC(=O)N1C[C@H](C)N(c2nc(OCCN3CC(F)(F)C3)nc3c(F)c(-c4c(C)ccc5[nH]nc(C6CC6)c45)c(Cl)cc23)C[C@H]1C` (atropisomer, axis not shown) [Compound 122, 1-((2R,5S)-4-((R)-6-chloro-7-(3-cyclopropyl-5-methyl-1H-indazol-4-yl)-2-(2-(3,3-difluoroazetidin-1-yl)ethoxy)-8-fluoroquinazolin-4-yl)-2,5-dimethylpiperazin-1-yl)prop-2-en-1-one], the Binding % result is listed as “+++ (+++ indicates binding activity greater than 80%)”.

Regarding `C=CC(=O)N1C[C@H](C)N(c2nc(N3CC(N(C)C)C3)nc3c(F)c(-c4c(C)ccc5cnn(C)c45)c(Cl)cc23)C[C@H]1C` (atropisomer, axis not shown) [Compound 131, 1-((2R,5S)-4-((S)-6-chloro-7-(1,6-dimethyl-1H-indazol-7-yl)-2-(3-(dimethylamino)azetidin-1-yl)-8-fluoroquinazolin-4-yl)-2,5-dimethylpiperazin-1-yl)prop-2-en-1-one], the Binding % entry is “+ (+ indicates binding activity greater than 0% and up to 50%)”.

On to `C=CC(=O)N1[C@H](C)CN(c2nc(N3CC(N(C)C)C3)nc3c(F)c(-c4c(C)ccc5[nH]nc(C6CC6)c45)c(Cl)cc23)C[C@@H]1C` (atropisomer, axis not shown) [Compound 133, 1-((2S,6R)-4-((S)-6-chloro-7-(3-cyclopropyl-5-methyl-1H-indazol-4-yl)-2-(3-(dimethylamino)azetidin-1-yl)-8-fluoroquinazolin-4-yl)-2,6-dimethylpiperazin-1-yl)prop-2-en-1-one], for which the Binding % result was “+ (+ indicates binding activity greater than 0% and up to 50%)”.

Regarding `C=CC(=O)N1[C@H](C)CN(c2nc(N3CC(N(C)C)C3)nc3c(F)c(-c4c(C)ccc5[nH]nc(C6CC6)c45)c(Cl)cc23)C[C@@H]1C` (atropisomer, axis not shown) [Compound 134, 1-((2S,6R)-4-((R)-6-chloro-7-(3-cyclopropyl-5-methyl-1H-indazol-4-yl)-2-(3-(dimethylamino)azetidin-1-yl)-8-fluoroquinazolin-4-yl)-2,6-dimethylpiperazin-1-yl)prop-2-en-1-one], the Binding % result is reported as “+++ (+++ indicates binding activity greater than 80%)”.

On to `C=CC(=O)N1C[C@H](C)N(c2nc(OCCN3CCC(F)(F)C3)nc3c(F)c(-c4c(C)ccc5cnn(C)c45)c(Cl)cc23)C[C@H]1C` (atropisomer, axis not shown) [Compound 135, 1-((2R,5S)-4-((S)-6-chloro-2-(2-(3,3-difluoropyrrolidin-1-yl)ethoxy)-7-(1,6-dimethyl-1H-indazol-7-yl)-8-fluoroquinazolin-4-yl)-2,5-dimethylpiperazin-1-yl)prop-2-en-1-one], for which the Binding % entry is “+ (+ indicates binding activity greater than 0% and up to 50%)”.

As for `C=CC(=O)N1C[C@H](C)N(c2nc(OCCN3CCC(F)(F)C3)nc3c(F)c(-c4c(C)ccc5cnn(C)c45)c(Cl)cc23)C[C@H]1C` (atropisomer, axis not shown) [Compound 136, 1-((2R,5S)-4-((R)-6-chloro-2-(2-(3,3-difluoropyrrolidin-1-yl)ethoxy)-7-(1,6-dimethyl-1H-indazol-7-yl)-8-fluoroquinazolin-4-yl)-2,5-dimethylpiperazin-1-yl)prop-2-en-1-one], the Binding % result is “+++ (+++ indicates binding activity greater than 80%)”.

With `C=CC(=O)N1C[C@H](C)N(c2nc(N3CC(NC)C3)nc3c(F)c(-c4c(C)ccc5cnn(C)c45)c(Cl)cc23)C[C@H]1C` (atropisomer, axis not shown) [Compound 139, 1-((2R,5S)-4-((S)-6-chloro-7-(1,6-dimethyl-1H-indazol-7-yl)-8-fluoro-2-(3-(methylamino)azetidin-1-yl)quinazolin-4-yl)-2,5-dimethylpiperazin-1-yl)prop-2-en-1-one], the Binding % entry is “+ (+ indicates binding activity greater than 0% and up to 50%)”.

For `C=CC(=O)N1[C@H](C)CN(c2nc(N3CC(N(C)C)C3)nc3c(F)c(-c4c(C)ccc5cnn(C)c45)c(Cl)cc23)C[C@@H]1C` (atropisomer, axis not shown) [Compound 141, 1-((2S,6R)-4-((S)-6-chloro-7-(1,6-dimethyl-1H-indazol-7-yl)-2-(3-(dimethylamino)azetidin-1-yl)-8-fluoroquinazolin-4-yl)-2,6-dimethylpiperazin-1-yl)propan-2-en-1-one], the Binding % result is “+ (+ indicates binding activity greater than 0% and up to 50%)”.

Take `C=CC(=O)N1[C@H](C)CN(c2nc(N3CC(N(C)C)C3)nc3c(F)c(-c4c(C)ccc5cnn(C)c45)c(Cl)cc23)C[C@@H]1C` (atropisomer, axis not shown) [Compound 142, 1-((2S,6R)-4-((R)-6-chloro-7-(1,6-dimethyl-1H-indazol-7-yl)-2-(3-(dimethylamino)azetidin-1-yl)-8-fluoroquinazolin-4-yl)-2,6-dimethylpiperazin-1-yl)prop-2-en-1-one]: the Binding % entry was “+++ (+++ indicates binding activity greater than 80%)”.
